Structures can show the parent of a compound that is named as a salt. Where two headings read alike, the source gives them in different places.

Here are results for 28 compounds from patent US10975056B2 (GlaxoSmithKline Intellectual Property Development Limited, priority 2016, dated 2021).

Test [1] concerns the target DNMT1 (Homo sapiens, UniProt P26358). The test can be described thus: DNMT1 biochemical activity, breaklight assay and/or SPA assay.
For test [2], the system named is erythroid progenitor cells (EPCs). The test can be described thus: Fetal hemoglobin (HbF) ELISA in day 7 erythroid progenitor cells.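 Note: for fetal hemoglobin induction normalized to vehicle-treated cells.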 The test is classed as cell-based, human. Particulars: Homo sapiens, Erythroid progenitor cell, HbF ELISA, day 7 EPCs, 5 days; read-out: EPC ELISA (pEC50 category) (converted). The procedure, abridged: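 Read-out was OD450 from an HRP/TMB sandwich ELISA on lysates, normalized to DMSO-only control wells. Thawed day 7 EPCs from human marrow CD34+ cells had been treated for 5 days at 37° C with Compound A, 22 concentrations […].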
Background: An ELISA detects its analyte on a solid surface through an enzyme-linked reagent.

[3] abbreviates: binned activity in either the breaklight or the SPA assay.
[4] abbreviates: breaklight assay and/or SPA assay, repeated experimental runs, read-out: average pIC50 against DNMT1 (converted).
Where [5] appears, read: binned activity in either the breaklight or the SPA assay, read-out: DNMT1 BioChemical (pIC50 category) (converted).

Sequence of DNMT1 (P26358 whole entry, looked up): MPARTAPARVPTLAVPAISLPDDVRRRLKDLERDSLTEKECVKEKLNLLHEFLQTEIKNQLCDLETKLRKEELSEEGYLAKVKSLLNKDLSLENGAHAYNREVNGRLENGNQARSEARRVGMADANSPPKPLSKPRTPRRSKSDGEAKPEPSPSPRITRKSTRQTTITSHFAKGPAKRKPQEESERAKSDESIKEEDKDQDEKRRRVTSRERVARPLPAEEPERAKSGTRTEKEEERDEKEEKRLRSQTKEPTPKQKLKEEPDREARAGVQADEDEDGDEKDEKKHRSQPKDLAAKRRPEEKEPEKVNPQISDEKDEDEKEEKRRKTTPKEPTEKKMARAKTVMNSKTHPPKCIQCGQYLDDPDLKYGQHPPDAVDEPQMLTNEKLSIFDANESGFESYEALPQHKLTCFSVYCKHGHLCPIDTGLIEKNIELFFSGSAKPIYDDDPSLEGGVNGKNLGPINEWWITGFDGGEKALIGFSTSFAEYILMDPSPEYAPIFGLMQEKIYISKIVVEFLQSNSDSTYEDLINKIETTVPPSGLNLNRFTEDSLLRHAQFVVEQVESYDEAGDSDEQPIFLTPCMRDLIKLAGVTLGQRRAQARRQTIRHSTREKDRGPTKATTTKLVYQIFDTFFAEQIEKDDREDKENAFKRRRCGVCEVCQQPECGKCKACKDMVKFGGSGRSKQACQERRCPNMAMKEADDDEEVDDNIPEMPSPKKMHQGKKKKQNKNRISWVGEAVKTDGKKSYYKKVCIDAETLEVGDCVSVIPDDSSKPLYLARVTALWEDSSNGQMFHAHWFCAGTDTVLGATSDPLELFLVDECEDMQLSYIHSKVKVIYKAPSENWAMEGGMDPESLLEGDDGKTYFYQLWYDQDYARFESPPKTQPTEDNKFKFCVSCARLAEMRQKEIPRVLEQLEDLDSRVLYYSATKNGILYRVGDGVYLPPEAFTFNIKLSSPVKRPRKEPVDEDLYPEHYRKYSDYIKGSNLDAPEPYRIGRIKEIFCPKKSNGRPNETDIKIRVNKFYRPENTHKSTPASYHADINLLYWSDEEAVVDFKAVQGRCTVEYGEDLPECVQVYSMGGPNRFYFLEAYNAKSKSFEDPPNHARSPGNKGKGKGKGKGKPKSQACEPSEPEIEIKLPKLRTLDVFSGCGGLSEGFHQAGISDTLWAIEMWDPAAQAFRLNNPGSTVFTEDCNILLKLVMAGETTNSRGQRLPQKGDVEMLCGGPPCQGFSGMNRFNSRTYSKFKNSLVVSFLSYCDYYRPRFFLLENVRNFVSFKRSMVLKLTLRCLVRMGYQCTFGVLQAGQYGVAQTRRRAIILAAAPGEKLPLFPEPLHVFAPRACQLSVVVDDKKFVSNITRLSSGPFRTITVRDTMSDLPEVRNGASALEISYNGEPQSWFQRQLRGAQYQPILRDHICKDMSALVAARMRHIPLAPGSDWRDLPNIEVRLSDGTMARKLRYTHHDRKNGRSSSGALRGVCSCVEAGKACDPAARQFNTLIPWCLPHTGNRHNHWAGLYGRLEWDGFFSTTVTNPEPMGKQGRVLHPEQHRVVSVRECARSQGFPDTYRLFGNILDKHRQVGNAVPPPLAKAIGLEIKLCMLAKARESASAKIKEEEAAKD

Consider `CCc1c(C#N)c(S[C@@H](C(N)=O)c2ccc(F)cc2)nc(N2CC[C@H](O)C2)c1C#N` [Example 425], for which the “DNMT1 BioChemical (pIC50 category)” value in test [1] (setting [3]) is listed as “D (Category D: ≥6.5)”. Further, the “average pIC50 against DNMT1” value in test [1] (breaklight assay and/or SPA assay, repeated experimental runs) was over 6.5. Further, in test [1] (setting [4]), the IC50 is 0.158 µM. The EC50 in test [2] was 0.316 to 1 µM.

As to `CCc1c(C#N)c(SC(C(N)=O)c2ccc(F)cc2F)nc(N2CC[C@H](O)C2)c1C#N` (some centres unmarked) [Example 430], the “DNMT1 BioChemical (pIC50 category)” value in test [1] (setting [3]) is on record as “D (Category D: ≥6.5)”. Further, the EC50 in test [2] is 0.316 to 1 µM.

For `CCc1c(C#N)c(SC(C(N)=O)c2ccc(C(F)(F)F)cc2)nc(N2CCCN(C)CC2)c1C#N` (centres unmarked) [Example 233, 2-((3,5-dicyano-4-ethyl-6-(4-methyl-1,4-diazepan-1-yl)pyridin-2-yl)thio)-2-(4-(trifluoromethyl)phenyl)acetamide], the IC50 in test [1] (setting [5]) was 0.316 to 1 µM. Besides, the EC50 in test [2] was under 0.316 µM.

`CCc1c(C#N)c(SC(C(N)=O)c2ccccc2)nc(N2CCC[C@@H](CNC(=O)C(C)(C)N)C2)c1C#N` (stereo partly drawn) [Example 588, 2-amino-N-(((3S)-1-(6-((2-amino-2-oxo-1-phenylethyl)thio)-3,5-dicyano-4-ethylpyridin-2-yl)piperidin-3-yl)methyl)-2-methylpropanamide]: the “DNMT1 BioChemical (pIC50 category)” value in test [1] (setting [3]) is “D (Category D: ≥6.5)”. In addition, the EC50 in test [2] was under 0.316 µM.

With `CCc1c(C#N)c(SCCN2CCOCC2)nc(SC(C(N)=O)c2ccccc2)c1C#N` (centres unmarked) [Example 201, 2-((3,5-Dicyano-4-ethyl-6-((2-morpholinoethyl)thio)pyridin-2-yl)thio)-2-phenylacetamide], the IC50 in test [1] (setting [5]) is 0.316 to 1 µM. Besides, the EC50 in test [2] is 0.316 to 1 µM.

As to `CCc1c(C#N)c(SC(C(N)=O)c2ccc(F)cc2)nc(N2CCC(N3CCCC3)CC2)c1C#N` (centres unmarked) [Example 505, 2-((3,5-dicyano-4-ethyl-6-(4-(pyrrolidin-1-yl)piperidin-1-yl)pyridin-2-yl)thio)-2-(4-fluorophenyl)acetamide], the “DNMT1 BioChemical (pIC50 category)” value in test [1] (setting [3]) is given as “D (Category D: ≥6.5)”. Also, the EC50 in test [2] was under 0.316 µM.

In the case of `CCc1c(C#N)c(SCCN(C)C)nc(SC(C(N)=O)c2ccccc2)c1C#N` (centres unmarked) [Example 218, 2-((3,5-Dicyano-6-((2-(dimethylamino)ethyl)thio)-4-ethylpyridin-2-yl)thio)-2-phenylacetamide], the IC50 in test [1] (setting [5]) is 0.316 to 1 µM. For the same compound, the EC50 in test [2] is under 0.316 µM.

Regarding `CCc1c(C#N)c(SC(C(N)=O)c2ccccc2)nc(N2CCC(NC)CC2)c1C#N` (centres unmarked) [Example 547, 2-((3,5-dicyano-4-ethyl-6-(4-(methylamino)piperidin-1-yl)pyridin-2-yl)thio)-2-phenylacetamide], the “DNMT1 BioChemical (pIC50 category)” value in test [1] (setting [3]) is on record as “D (Category D: ≥6.5)”. In addition, the EC50 in test [2] is under 0.316 µM.

For the compound `CCc1c(C#N)c(S[C@@H](C(N)=O)c2ccccc2)nc(N2CC[C@@H](N)[C@@H](F)C2)c1C#N` [Example 506, (R)-2-((6-((3S,4R)-4-amino-3-fluoropiperidin-1-yl)-3,5-dicyano-4-ethylpyridin-2-yl)thio)-2-phenylacetamide 2,2,2-trifluoroacetate], in test [1] (setting [3]), the “DNMT1 BioChemical (pIC50 category)” value is “D (Category D: ≥6.5)”. In test [2], the EC50 was under 0.316 µM.

Regarding `CCc1c(C#N)c(SC(C(N)=O)c2ccnc(F)c2)nc(N2CCCN(C)CC2)c1C#N` (centres unmarked) [Example 239, 2-((3,5-Dicyano-4-ethyl-6-(4-methyl-1,4-diazepan-1-yl)pyridin-2-yl)thio)-2-(2-fluoropyridin-4-yl)acetamide], the IC50 in test [1] (setting [5]) is 1 to 31.6 µM. Besides, the EC50 in test [2] is over 31.6 µM.

For the compound `CCc1c(C#N)c(S[C@@H](C(N)=O)c2ccc(F)cc2)nc(N2CC[C@H](OP(=O)(O)O)C2)c1C#N` [Example 426, (S)-1-(6-(((R)-2-amino-1-(4-fluorophenyl)-2-oxoethyl)thio)-3,5-dicyano-4-ethylpyridin-2-yl)pyrrolidin-3-yl dihydrogen phosphate], the IC50 in test [1] (setting [5]) was 1 to 31.6 µM. The EC50 in test [2] was over 31.6 µM.

For the compound `CCc1c(C#N)c(SC(C(N)=O)c2ccccc2)nc(N2CCN(Cc3ccon3)CC2)c1C#N` (centres unmarked) [Example 183, 2-((3,5-Dicyano-4-ethyl-6-(4-(isoxazol-3-ylmethyl)piperazin-1-yl)pyridin-2-yl)thio)-2-phenylacetamide], the IC50 in test [1] (setting [5]) is 0.316 to 1 µM. Moreover, in test [2], the EC50 is 1 to 31.6 µM.

`CNC1CCCN(c2nc(SC(C(N)=O)c3ccccc3)c(C#N)c(C3CC3)c2C#N)C1` (centres unmarked) [Example 24, 2-((3,5-dicyano-4-cyclopropyl-6-(3-(methylamino)piperidin-1-yl)pyridin-2-yl)thio)-2-phenylacetamide]: the “DNMT1 BioChemical (pIC50 category)” value in test [1] (setting [3]) is “D (Category D: ≥6.5)”. For the same compound, the EC50 in test [2] was under 0.316 µM.

As for `CCc1c(C#N)c(SC(C(N)=O)c2ccccc2)nc(N2CCC(=O)N(C)CC2)c1C#N` (centres unmarked) [Example 111, 2-{[3,5-Dicyano-4-ethyl-6-(4-methyl-5-oxo-1,4-diazepan-1-yl)pyridin-2-yl]sulfanyl}-2-phenylacetamide], the IC50 in test [1] (setting [5]) is 0.316 to 1 µM. The EC50 in test [2] was under 0.316 µM.

For the compound `CCc1c(C#N)c(SCc2ccc(-n3ccnc3)cc2)nc(N2CCCN(C)CC2)c1C#N` [Example 294, 2-((4-(1H-Imidazol-1-yl)benzyl)thio)-4-ethyl-6-(4-methyl-1,4-diazepan-1-yl)pyridine-3,5-dicarbonitrile], in test [1] (setting [5]), the IC50 is 0.316 to 1 µM. Further, the EC50 in test [2] was over 31.6 µM.

With `CCc1c(C#N)c(SCc2ccc(CNC(C)=O)cc2)nc(N2CCC(OCCOC(=O)[C@@H](N)C(C)C)CC2)c1C#N` [Example 264, (S)-2-((1-(6-((4-(Acetamidomethyl)benzyl)thio)-3,5-dicyano-4-ethylpyridin-2-yl)piperidin-4-yl)oxy)ethyl 2-amino-3-methylbutanoate], in test [1] (setting [5]), the IC50 was 1 to 31.6 µM. Also, the EC50 in test [2] is over 31.6 µM.

Turning to `N#Cc1c(SC(C(N)=O)c2ccccc2)nc(N2CCCC(NCC(=O)O)C2)c(C#N)c1C1CC1` (centres unmarked) [Example 175, 2-((1-(6-((2-Amino-2-oxo-1-phenylethyl)thio)-3,5-dicyano-4-cyclopropvlpyridin-2-yl)piperidin-3-yl)amino)acetic acid], the IC50 in test [1] (setting [5]) was 0.316 to 1 µM. In addition, in test [2], the EC50 is over 31.6 µM.

Regarding `CCc1c(C#N)c(SC(C(N)=O)c2cc(OC)ccn2)nc(N2CCCN(C)CC2)c1C#N` (centres unmarked) [Example 214, 2-((3,5-Dicyano-4-ethyl-6-(4-methyl-1,4-diazepan-1-yl)pyridin-2-yl)thio)-2-(4-methoxypyridin-2-yl)acetamide], the IC50 in test [1] (setting [5]) is 1 to 31.6 µM. In test [2], the EC50 was over 31.6 µM.

Regarding `CCc1c(C#N)c(S[C@@H](C(N)=O)c2ccccc2)nc(N2CC[C@](F)(CN)C2)c1C#N` [Example 638, (R)-2-((6-((S)-3-(aminomethyl)-3-fluoropyrrolidin-1-yl)-3,5-dicyano-4-ethylpyridin-2-yl)thio)-2-phenylacetamide], in test [1] (setting [3]), the “DNMT1 BioChemical (pIC50 category)” value was “D (Category D: ≥6.5)”. For the same compound, the EC50 in test [2] is 0.316 to 1 µM.

For the compound `CCc1c(C#N)c(SCc2ccc(CNC(=O)CO)cc2)nc(N(C)CC(N)=O)c1C#N` [Example 371], in test [1] (setting [5]), the IC50 was 0.316 to 1 µM. Moreover, the EC50 in test [2] was 1 to 31.6 µM.

In the case of `CCc1c(C#N)c(SC(C(N)=O)c2ccccc2)nc(N2CCC(OC3COC3)CC2)c1C#N` (centres unmarked) [Example 231, 2-((3,5-Dicyano-4-ethyl-6-(4-(oxetan-3-yloxy)piperidin-1-yl)pyridin-2-yl)thio)-2-phenylacetamide], the IC50 in test [1] (setting [5]) is 0.316 to 1 µM. Also, the EC50 in test [2] was 0.316 to 1 µM.

`CCc1c(C#N)c(SC(C(N)=O)c2ccccc2)nc(N(C)CC(=O)N2CC[C@H](O)C2)c1C#N` (stereo partly drawn) [Example 616, 2-((3,5-dicyano-4-ethyl-6-((2-((S)-3-hydroxypyrrolidin-1-yl)-2-oxoethyl)(methyl)amino)pyridin-2-yl)thio)-2-phenylacetamide]: the “DNMT1 BioChemical (pIC50 category)” value in test [1] (setting [3]) is given as “D (Category D: ≥6.5)”. Besides, the EC50 in test [2] is under 0.316 µM.

As for `CCc1c(C#N)c(SC(C(N)=O)c2ccc(F)cc2)nc(N2CCC(NC)CC2)c1C#N` (centres unmarked) [Example 526, 2-((3,5-dicyano-4-ethyl-6-(4-(methylamino)piperidin-1-yl)pyridin-2-yl)thio)-2-(4-fluorophenyl)acetamide], the IC50 in test [1] (setting [5]) was under 0.316 µM. For the same compound, the EC50 in test [2] is under 0.316 µM.

For the compound `CCc1c(C#N)c(SCc2ccc(N3CCCCS3(=O)=O)cc2)nc(N2CCC(NCC(C)(C)C)CC2)c1C#N` [Example 604, 2-((4-(1,1-dioxido-1,2-thiazinan-2-yl)benzyl)thio)-4-ethyl-6-(4-(neopentylamino)piperidin-1-yl)pyridine-3,5-dicarbonitrile], the “DNMT1 BioChemical (pIC50 category)” value in test [1] (setting [3]) was “D (Category D: ≥6.5)”. Further, the EC50 in test [2] was over 31.6 µM.

For `CCc1c(C#N)c(SCc2ccc(/C=C/C(=O)O)cc2)nc(N(C)C)c1C#N` [Example 102, (E)-3-(4-(((3,5-Dicyano-6-(dimethylamino)-4-ethylpyridin-2-yl)thio)methyl)phenyl)acrylic acid, Trifluoroacetic Acid Salt], the IC50 in test [1] (setting [5]) is 1 to 31.6 µM; in test [1] (setting [4]) it was at least 1 µM. Besides, in test [2], the EC50 was over 31.6 µM.

Turning to `N#Cc1c(SC(C(N)=O)c2ccncc2)nc(N2CCNCC2)c(C#N)c1C1CC1` (centres unmarked) [Example 30, 2-((3,5-dicyano-4-cyclopropyl-6-(piperazin-1-yl)pyridin-2-yl)thio)-2-(pyridin-4-yl)acetamide], the IC50 in test [1] (setting [5]) is 0.316 to 1 µM. Further, the EC50 in test [2] was over 31.6 µM.

For the compound `CCc1c(C#N)c(SCc2ccc(N(C)S(C)(=O)=O)cc2)nc(N(C)CCNCCOC)c1C#N` [Example 480], the “DNMT1 BioChemical (pIC50 category)” value in test [1] (setting [3]) is given as “D (Category D: ≥6.5)”. For the same compound, the EC50 in test [2] is 0.316 to 1 µM.

For the compound `CCc1c(C#N)c(SC(C(N)=O)c2ccccc2)nc(N2CCc3ccncc3C2)c1C#N` (centres unmarked) [Example 178, 2-((3,5-Dicyano-6-(3,4-dihydro-2,7-naphthyridin-2 (1H)-yl)-4-ethylpyridin-2-yl)thio)-2-phenylacetamide], the “DNMT1 BioChemical (pIC50 category)” value in test [1] (setting [3]) is given as “D (Category D: ≥6.5)”. The EC50 in test [2] is 1 to 31.6 µM.
